Key:
[1] = target: T1, KRAS G12D 1-169 (His-tagged, GDP-loaded) (Homo sapiens, UniProt P01116, G12D); assay: Covalent modification of KRAS protein by intact-protein LC-MS; type: binding; settings: comparable or same conditions as K-Ras G12S
T1 construct: His -tagged GDP-loaded G12D 1-169; made in house; host or cells: E. coli, e.g. BL21 (DE3)
Procedure, shortened: (§1)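 Percent modification is derived from deconvoluted intact-protein LC-ESI-MS peak intensities of adducted versus unmodified KRAS. GDP-loaded His-tagged KRAS 1-169 (~2 μM, HEPES buffer at physiological conditions) was exposed to compound for 24 hrs at room temperature, then quenched with formic acid before C4 reversed-phase separation.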

[2] = in vitro; settings: microsomes, pH 7.4
Procedure: The metabolic stability of a test compound is assayed at 37° C. using pooled liver microsomes (mouse or human liver microsomes). An aliquot of 10 μL of 50 μM test compound is mixed with 490 μL of 0.611 mg/mL liver microsomes, then 50 μL of the mixtures are dispensed to the 96 well tubes and warmed at 37° C. for 10 minutes. The reactions are initiated by adding 50 μL of the pre-warmed NADPH regeneration system solution (add 1.2 μL solution, 240 μl solution B, mix with 10.56 ml KPBS) and then incubated at 37° C. The final incubation solution contains 100 mM potassium phosphate (pH 7.4), 1.3 mM NADP+, 3.3 mM glucose 6-phosphate, 0.4 Unit/mL of glucose 6-phosphate dehydrogenase, 3.3 mM magnesium chloride, 0.3 mg/mL liver microsomes and 0.5 μM test article. After 0, 15, 30 and 60 minutes in a shaking incubator, the reactions are terminated by adding 100 μL of acetonitrile containing 200 nM buspirone as an internal standard. All incubations are conducted in duplicate. […] Samples are then centrifuged at 3500 rpm for 10 minutes (4° C.) using Sorvall Legend XRT Centrifuge (Thermo Scientific, GE). Supernatants (40 μL) are transferred into clean 96-deep well plates. Each well is added with 160 μL of ultrapure water (Milli-Q, Millipore Corporation) with 0.1% (v/v) formic acid (Fisher Chemical), mixed thoroughly and subjected to LC/MS/MS analysis in MRM positive ionization mode.
All the samples are measured using a mass spectrometer (QTrap 5500 quadrupole/ion trap) coupled with a Shimadzu HPLC system. The HPLC system consisted of a Shimadzu series degasser, binary quaternary gradient pumps, column heater coupled to an autosampler, and a Phenomenex Gemini-NX, C18, 3.0 μm or Phenomenex Lunar, C8, 5.0 μM HPLC column (Phenomenex, Torrance, CA), and eluted with a mobile phase gradient consisting of Solution A (0.1% formic acid water) and Solution B (0.1% formic acid acetonitrile). The column temperature is maintained at 40° C. All the analytes are detected with positive-mode electrospray ionization (ES+).
The half-life for the metabolic degradation of the test compound is calculated by plotting the time-course disappearance of the test compound during the incubation with liver microsomes. Each plot is fitted to a first-order equation for the elimination of the test compound (% remaining compound) versus time using non-linear regression (Equation 1).
where Ct is the mean relative substrate concentration at time t and C0 is the initial concentration (0.5 μM) at time 0. Note that the area ratio of the substrate peak to an internal standard peak is proportional to the analyte concentration and is used for regression analysis to derive a value of k.

[3] = target: T2, KRAS G12S 1-169 (His-tagged, GDP-loaded) (Homo sapiens, UniProt P01116, G12S); assay: Covalent modification of KRAS protein by intact-protein LC-MS; type: binding; settings: for % G12S Modification at 24 hr.: KRAS G12S
T2 construct: His -tagged GDP-loaded G12S 1-169; made in house; host or cells: E. coli, e.g. BL21 (DE3)
Procedure, shortened: as §1

N#Cc1c(N)sc2c(F)ccc(-c3ncc4c(N5CC6CCC(C5)N6C(=O)n5ccnc5C#N)nc(OC[C@@]56CCCN5C[C@H](F)C6)nc4c3F)c12 [Compound A165, 1-(3-(7-(2-amino-3-cyano-7-fluorobenzo[b]thiophen-4-yl)-8-fluoro-2-(((2R,7aS)-2-fluoro-tetrahydro-1H-pyrrolizin-7a(5H)-yl)methoxy)pyrido[4,3-d]pyrimidin-4-yl)-3,8-diaza-bicyclo[3.2.1]octane-8-carbon-yl)-1H-imidazole-2-carbonitrile]
covalent labeling of K-Ras G12D [1]: essentially no detectable labeling | half-life at 0.5 μM [2]: > 10 min

N#Cc1nccn1C(=O)N1C2CCC1CN(c1nc(OC[C@@]34CCCN3C[C@H](F)C4)nc3c(F)c(-c4ccc(F)c5sc(N)nc45)c(Cl)cc13)C2 [Compound A170, 1-(3-(7-(2-amino-7-fluorobenzo-[d]thiazol-4-yl)-6-chloro-8-fluoro-2-(((2R,7aS)-2-fluoro-tetrahydro-1H-pyrrolizin-7a(5H)-yl)methoxy)quinazolin-4-yl)-3,8-diazabicyclo[3.2.1]-octane-8-carbonyl)-1H-imid-azole-2-carbonitrile]
% G12S Modification at 24 hr. [3]: ++ (++ indicates between about 1%-20% labelling)

N#Cc1c(N)sc2c(F)ccc(-c3c(Cl)cc4c(N[C@H]5C[C@H]6CC[C@@H](C5)N6C(=O)n5cncn5)nc(OC[C@@]56CCCN5C[C@H](F)C6)nc4c3F)c12 [Compound A257, 4-(4-(((1R,3r,5S)-8-(1H-1,2,4-triazole-1-carbonyl)-8-aza-bicyclo-[3.2.1]octan-3-yl)-amino)-6-chloro-8-fluoro-2-(((2R,7aS)-2-fluorotetrahydro-1H-pyrrolizin-7a(5H)-yl)meth-oxy)quinazolin-7-yl)-2-amino-7-fluorobenzo[b]thiophene-3-carbonitrile]
covalent labeling of K-Ras G12D [1]: essentially no detectable labeling | % G12S Modification at 24 hr. [3]: ++ (++ indicates between about 1%-20% labelling)

C#Cc1c(F)ccc2cc(O)cc(-c3ncc4c(N5CC6CCC(C5)N6C(=O)n5cnc(C#N)c5)nc(OC[C@@]56CCCN5C[C@H](F)C6)nc4c3F)c12 [Compound A255, 1-(3-(7-(8-ethynyl-7-fluoro-3-hydroxynaphthalen-1-yl)-8-fluoro-2-(((2R,7aS)-2-fluoro-tetrahydro-1H-pyrrolizin-7a(5H)-yl)methoxy)pyrido[4,3-d]pyrimidin-4-yl)-3,8-diaza-bicyclo[3.2.1]octane-8-carbon-yl)-1H-imidazole-4-carbonitrile]
covalent labeling of K-Ras G12D [1]: essentially no detectable labeling | % G12S Modification at 24 hr. [3]: ++ (++ indicates between about 1%-20% labelling)

N#Cc1cn(C(=O)N2C3CCC2CN(c2nc(OC[C@@]45CCCN4C[C@H](F)C5)nc4c(F)c(-c5ccc(F)c6sc(N)nc56)c(Cl)cc24)C3)cn1 [Compound A123, 1-(3-(7-(2-amino-7-fluorobenzo-[d]thiazol-4-yl)-6-chloro-8-fluoro-2-(((2R,7aS)-2-fluoro-tetrahydro-1H-pyrrolizin-7a(5H)-yl)methoxy)quinazolin-4-yl)-3,8-diazabicyclo[3.2.1]-octane-8-carbonyl)-1H-imid-azole-4-carbonitrile]
K-Ras12S engagement after 24-hour treatment ([3]; 24-hour treatment): ++ (++: indicates between 1% to 20% labelling) | % G12S Modification at 24 hr. [3]: ++ (++ indicates between about 1%-20% labelling)

N#Cc1c(N)sc2c(F)ccc(-c3c(Cl)cc4c(N5CC6CCC(C5)N6C(=O)n5cc(C(F)(F)F)cn5)nc(OC[C@@]56CCCN5C[C@H](F)C6)nc4c3F)c12 [Compound A122, 2-amino-4-(6-chloro-8-fluoro-2-(((2R,7aS)-2-fluorotetrahydro-1H-pyrrolizin-7a(5H)-yl)meth-oxy)-4-(8-(4-(trifluoromethyl)-1H-pyrazole-1-carbonyl)-3,8-diazabicyclo[3.2.1]octan-3-yl)-quinazolin-7-yl)-7-fluorobenzo-[b]thiophene-3-carbonitrile]
half-life at 0.5 μM [2]: > 10 min

N#Cc1c(N)sc2c(F)ccc(-c3c(Cl)cc4c(N5CC6CCC(C5)N6C(=O)n5ccnc5C#N)nc(OC[C@@]56CCCN5C[C@H](F)C6)nc4c3F)c12 [Compound A220, 1-(3-(7-(2-amino-3-cyano-7-fluorobenzo[b]thiophen-4-yl)-6-chloro-8-fluoro-2-(((2R,7aS)-2-fluorotetrahydro-1H-pyrrol-izin-7a(5H)-yl)methoxy)quin-azolin-4-yl)-3,8-diazabicyclo-[3.2.1]octane-8-carbonyl)-1H-imidazole-2-carbonitrile]
half-life at 0.5 μM [2]: > 10 min

N#Cc1c(N)sc2c(F)ccc(-c3c(Cl)cc4c(N5CCN(C(=O)n6cncn6)CC(F)(F)C5)nc(OC[C@@]56CCCN5C[C@H](F)C6)nc4c3F)c12 [Compound A280, 2-amino-4-(6-chloro-4-(6,6-difluoro-4-(1H-1,2,4-triazole-1-carbonyl)-1,4-diazepan-1-yl)-8-fluoro-2-(((2R,7aS)-2-fluoro-tetrahydro-1H-pyrrolizin-7a(5H)-yl)methoxy)quinazolin-7-yl)-7-fluorobenzo[b]thio-phene-3-carbonitrile]
covalent labeling of K-Ras G12D [1]: essentially no detectable labeling | % G12S Modification at 24 hr. [3]: +++ (+++ indicates greater than 20% labelling)

C#Cc1c(F)ccc2cc(O)cc(-c3ccc4c(N5CC6CCC(C5)N6C(=O)n5cncn5)nc(OC[C@@]56CCCN5C[C@H](F)C6)nc4c3F)c12 [Compound A281, (3-(7-(8-ethynyl-7-fluoro-3-hydroxynaphthalen-1-yl)-8-fluoro-2-(((2R,7aS)-2-fluoro-tetrahydro-1H-pyrrolizin-7a(5H)-yl)methoxy)quinazolin-4-yl)-3,8-diazabicyclo[3.2.1]-octan-8-yl)(1H-1,2,4-triazol-1-yl)methanone]
half-life at 0.5 μM [2]: > 10 min

N#Cc1cnn(C(=O)N2C3CCC2CN(c2nc(OC[C@@]45CCCN4C[C@H](F)C5)nc4c(F)c(-c5ccc(F)c6sc(N)nc56)c(Cl)cc24)C3)c1 [Compound A253, 1-(3-(7-(2-amino-7-fluorobenzo-[d]thiazol-4-yl)-6-chloro-8-fluoro-2-(((2R,7aS)-2-fluoro-tetrahydro-1H-pyrrolizin-7a(5H)-yl)methoxy)quinazolin-4-yl)-3,8-diazabicyclo[3.2.1]-octane-8-carbonyl)-1H-pyrazole-4-carbonitrile]
half-life at 0.5 μM [2]: > 10 min

Nc1nc2c(-c3c(Cl)cc4c(N5CC6CCC(C5)N6C(=O)n5cncn5)nc(OC[C@@]56CCCN5C[C@H](F)C6)nc4c3F)ccc(F)c2s1 [Compound A111, (3-(7-(2-amino-7-fluorobenzo-[d]thiazol-4-yl)-6-chloro-8-fluoro-2-(((2R,7aS)-2-fluoro-tetrahydro-1H-pyrrolizin-7a(5H)-yl)methoxy)quinazolin-4-yl)-3,8-diazabicyclo[3.2.1]-octan-8-yl)(1H-1,2,4-triazol-1-yl)methanone]
half-life at 0.5 μM [2]: > 10 min

N#Cc1ccn(C(=O)N2C3CCC2CN(c2nc(OC[C@@]45CCCN4C[C@H](F)C5)nc4c(F)c(-c5ccc(F)c6sc(N)c(C#N)c56)c(Cl)cc24)C3)n1 [Compound A224, 1-(3-(7-(2-amino-3-cyano-7-fluorobenzo[b]thiophen-4-yl)-6-chloro-8-fluoro-2-(((2R,7aS)-2-fluorotetrahydro-1H-pyrrolizin-7a(5H)-yl)methoxy)quinazolin-4-yl)-3,8-diazabicyclo[3.2.1]-octane-8-carbonyl)-1H-pyrazole-3-carbonitrile]
half-life at 0.5 μM [2]: > 10 min

N#Cc1c(N)sc2c(F)ccc(-c3c(Cl)cc4c(N5CC6CCC(C5)N6C(=O)n5cncn5)nc(OC[C@@]56CCCN5C[C@H](F)C6)nc4c3F)c12 [Compound A260, 4-(4-(8-(1H-1,2,4-triazole-1-carbonyl)-3,8-diazabicyclo-[3.2.1]octan-3-yl)-6-chloro-8-fluoro-2-(((2R,7aS)-2-fluoro-tetrahydro-1H-pyrrolizin-7a(5H)-yl)methoxy)quinazolin-7-yl)-2-amino-7-fluorobenzo-[b]thiophene-3-carbonitrile]
half-life at 0.5 μM [2]: > 10 min

N#Cc1cnn(C(=O)N2CC3COCC(C2)N3c2nc(OC[C@@]34CCCN3C[C@H](F)C4)nc3c(F)c(-c4ccc(F)c5sc(N)c(C#N)c45)c(Cl)cc23)c1 [Compound A249, 1-(9-(7-(2-amino-3-cyano-7-fluorobenzo[b]thiophen-4-yl)-6-chloro-8-fluoro-2-(((2R,7aS)-2-fluorotetrahydro-1H-pyrrolizin-7a(5H)-yl)methoxy)quinazolin-4-yl)-3-oxa-7,9-diazabicyclo-[3.3.1]nonane-7-carbonyl)-1H-pyrazole-4-carbonitrile]
half-life at 0.5 μM [2]: > 10 min

— patent US20240368191A1, “HETEROCYCLIC COMPOUNDS AND USES THEREOF” (Kumquat Biosciences Inc., priority 2021, published 2024)
